Results as given in ChEMBL document CHEMBL1152860, “Synthesis and antiproliferative activity of 3-amino-N-phenyl-1H-indazole-1-carboxamides” (2009).

Experiments:
Format in all cases: functional
[1] = test system: M14; test: Growth inhibition of human M14 cells after 48 hrs by SRB assay; settings: M14, 48 h
[2] = test system: SNB-19; test: Growth inhibition of human SNB19 cells after 48 hrs by SRB assay; settings: SNB-19, 48 h
[3] = test system: SNB-75; test: Growth inhibition of human SNB75 cells after 48 hrs by SRB assay; settings: SNB-75, 48 h
[4] = test system: SW-620; test: Growth inhibition of human SW620 cells after 48 hrs by SRB assay; settings: SW-620, 48 h
[5] = test system: MOLT-4; test: Growth inhibition of human MOLT4 cells after 48 hrs by SRB assay; settings: MOLT-4, 48 h
[6] = test system: A549; test: Growth inhibition of human A549 cells after 48 hrs by SRB assay; settings: A549, 48 h
[7] = test system: MDA-MB-231; test: Growth inhibition of human MDA-MB-231 cells after 48 hrs by SRB assay; settings: MDA-MB-231, 48 h
[8] = test system: SF-539; test: Growth inhibition of human SF539 cells after 48 hrs by SRB assay; settings: SF-539, 48 h
[9] = test system: SR; test: Growth inhibition of human SR cells after 48 hrs by SRB assay
[10] = test system: SK-OV-3; test: Growth inhibition of human SKOV3 cells after 48 hrs by SRB assay; settings: SK-OV-3, 48 h
[11] = test system: COLO 205; test: Growth inhibition of human COLO205 cells after 48 hrs by SRB assay; settings: COLO 205, 48 h
[12] = test system: OVCAR-3; test: Growth inhibition of human OVCAR-3 cells after 48 hrs by SRB assay; settings: OVCAR-3, 48 h
[13] = test system: UACC-62; test: Growth inhibition of human UACC62 cells after 48 hrs by SRB assay; settings: UACC-62, 48 h
[14] = test system: NCI-H23; test: Growth inhibition of human NCI-H23 cells after 48 hrs by SRB assay; settings: NCI-H23, 48 h
[15] = test system: NCI-H460; test: Growth inhibition of human NCI-H460 cells after 48 hrs by SRB assay; settings: NCI-H460, 48 h
[16] = test system: DU-145; test: Growth inhibition of human DU145 cells after 48 hrs by SRB assay; settings: DU-145, 48 h
[17] = test system: CAKI-1; test: Growth inhibition of human Caki1 cells after 48 hrs by SRB assay; settings: CAKI-1, 48 h
[18] = test system: OVCAR-5; test: Growth inhibition of human OVCAR5 cells after 48 hrs by SRB assay; settings: OVCAR-5, 48 h
[19] = test system: 786-0; test: Growth inhibition of human 786-0 cells after 48 hrs by SRB assay; settings: 786-0, 48 h
[20] = test system: RPMI-8226; test: Growth inhibition of human RPMI8226 cells after 48 hrs by SRB assay; settings: RPMI-8226, 48 h
[21] = test system: LOX IMVI; test: Growth inhibition of human LOXIMVI cells after 48 hrs by SRB assay
[22] = test system: NCI-H226; test: Growth inhibition of human NCI-H226 cells after 48 hrs by SRB assay; settings: NCI-H226, 48 h
[23] = test system: SK-MEL-28; test: Growth inhibition of human SK-MEL-28 cells after 48 hrs by SRB assay; settings: SK-MEL-28, 48 h
[24] = test system: SF-295; test: Growth inhibition of human SF295 cells after 48 hrs by SRB assay; settings: SF-295, 48 h
[25] = test system: U-251; test: Growth inhibition of human U251 cells after 48 hrs by SRB assay; settings: U-251, 48 h
[26] = test system: SK-MEL-2; test: Growth inhibition of human SK-MEL-2 cells after 48 hrs by SRB assay; settings: SK-MEL-2, 48 h
[27] = test system: OVCAR-8; test: Growth inhibition of human OVCAR8 cells after 48 hrs by SRB assay; settings: OVCAR-8, 48 h
[28] = test system: UACC-257; test: Growth inhibition of human UACC257 cells after 48 hrs by SRB assay; settings: UACC-257, 48 h
[29] = test system: BT-549; test: Growth inhibition of human BT549 cells after 48 hrs by SRB assay; settings: BT-549, 48 h
[30] = test system: PC-3; test: Growth inhibition of human PC3 cells after 48 hrs by SRB assay; settings: PC-3, 48 h
[31] = test system: RXF 393; test: Growth inhibition of human […] cells after 48 hrs by SRB assay; settings: RXF 393, 48 h
[32] = test system: T47D; test: Growth inhibition of human T47D cells after 48 hrs by SRB assay
[33] = test system: A498; test: Growth inhibition of human A498 cells after 48 hrs by SRB assay; settings: A498, 48 h
[34] = test system: SN12C; test: Growth inhibition of human SN12C cells after 48 hrs by SRB assay
[35] = test system: K562; test: Growth inhibition of human K562 cells after 48 hrs by SRB assay; settings: K562, 48 h
[36] = test system: HCT-15; test: Growth inhibition of human HCT15 cells after 48 hrs by SRB assay; settings: HCT-15, 48 h
[37] = test system: NCI-H522; test: Growth inhibition of human NCI-H522 cells after 48 hrs by SRB assay; settings: NCI-H522, 48 h
[38] = test system: IGROV-1; test: Growth inhibition of human IGROV1 cells after 48 hrs by SRB assay; settings: IGROV-1, 48 h
[39] = Growth inhibition of human Hs 578T cells after 48 hrs by SRB assay
[40] = test system: Malme-3M; test: Growth inhibition of human MALME-3M cells after 48 hrs by SRB assay
[41] = test system: KM12; test: Growth inhibition of human KM12 cells after 48 hrs by SRB assay; settings: KM12, 48 h
[42] = test system: UO-31; test: Growth inhibition of human UO31 cells after 48 hrs by SRB assay; settings: UO-31, 48 h
[43] = test system: HT-29; test: Growth inhibition of human HT-29 cells after 48 hrs by SRB assay; settings: HT-29, 48 h
[44] = test system: OVCAR-4; test: Growth inhibition of human OVCAR4 cells after 48 hrs by SRB assay; settings: OVCAR-4, 48 h
[45] = test system: NCI/ADR-RES; test: Growth inhibition of human NCI/ADR-RES cells after 48 hrs by SRB assay
[46] = test system: HCT-116; test: Growth inhibition of human HCT116 cells after 48 hrs by SRB assay; settings: HCT-116, 48 h
[47] = test system: NCI-H322M; test: Growth inhibition of human NCI-H322M cells after 48 hrs by SRB assay
[48] = test system: HCC 2998; test: Growth inhibition of human HCC2998 cells after 48 hrs by SRB assay; settings: HCC 2998, 48 h
[49] = test system: SK-MEL-5; test: Growth inhibition of human SK-MEL-5 cells after 48 hrs by SRB assay; settings: SK-MEL-5, 48 h
[50] = test system: HOP-92; test: Growth inhibition of human HOP92 cells after 48 hrs by SRB assay; settings: HOP-92, 48 h
[51] = test system: ACHN; test: Growth inhibition of human ACHN cells after 48 hrs by SRB assay
[52] = test system: HL-60(TB); test: Growth inhibition of human HL-60(TB) cells after 48 hrs by SRB assay; settings: HL-60, 48 h
[53] = test system: SF-268; test: Growth inhibition of human SF268 cells after 48 hrs by SRB assay; settings: SF-268, 48 h
[54] = test system: EKVX; test: Growth inhibition of human EKVX cells after 48 hrs by SRB assay
[55] = test system: MCF7; test: Growth inhibition of human MCF7 cells after 48 hrs by SRB assay; settings: MCF7, 48 h
[56] = test system: HOP-62; test: Growth inhibition of human HOP62 cells after 48 hrs by SRB assay; settings: HOP-62, 48 h
[57] = test system: MDA-MB-435; test: Growth inhibition of human MDA-MB-435 cells after 48 hrs by SRB assay; settings: MDA-MB-435, 48 h
[58] = test system: TK-10; test: Growth inhibition of human TK10 cells after 48 hrs by SRB assay; settings: TK-10, 48 h

Question: Which results are given for `O=C(Nc1ccc(Cc2ccccc2)cc1)Nc1nn(C(=O)Nc2ccc(Cc3ccccc3)cc2)c2ccccc12`?
Answer: GI50 [1]: > 100 µM; GI50 [2]: > 100 µM; GI50 [3]: 33.8 µM; GI50 [4]: > 100 µM; GI50 [5]: 63.2 µM; GI50 [6]: > 100 µM; GI50 [7]: 47.1 µM; GI50 [8]: > 100 µM; GI50 [9]: 16.3 µM; GI50 [10]: > 100 µM; GI50 [11]: > 100 µM; GI50 [12]: > 100 µM; GI50 [13]: 41.6 µM; GI50 [14]: > 100 µM; GI50 [15]: > 100 µM; GI50 [16]: 80 µM; GI50 [17]: > 100 µM; GI50 [18]: > 100 µM; GI50 [19]: > 100 µM; GI50 [20]: > 100 µM; GI50 [21]: 71 µM; GI50 [22]: > 100 µM; GI50 [23]: > 100 µM; GI50 [24]: > 100 µM; GI50 [25]: 70.2 µM; GI50 [26]: > 100 µM; GI50 [27]: > 100 µM; GI50 [28]: > 100 µM; GI50 [29]: > 100 µM; GI50 [30]: > 100 µM; GI50 [31]: 30.4 µM; GI50 [32]: > 100 µM; GI50 [33]: 82.4 µM; GI50 [34]: > 100 µM; GI50 [35]: 40.5 µM; GI50 [36]: > 100 µM; GI50 [37]: > 100 µM; GI50 [38]: > 100 µM; GI50 [39]: 74.2 µM; GI50 [40]: > 100 µM; GI50 [41]: > 100 µM; GI50 [42]: > 100 µM; GI50 [43]: > 100 µM; GI50 [44]: > 100 µM; GI50 [45]: > 100 µM; GI50 [46]: > 100 µM; GI50 [47]: > 100 µM; GI50 [48]: > 100 µM; GI50 [49]: > 100 µM; GI50 [50]: 18 µM; GI50 [51]: > 100 µM; GI50 [52]: > 100 µM; GI50 [53]: 75.6 µM; GI50 [54]: > 100 µM; GI50 [55]: > 100 µM; GI50 [56]: 59.7 µM; GI50 [57]: > 100 µM; GI50 [58]: > 100 µM
